Measurements as given in US10512644B2, “Oligomer-opioid agonist conjugates” (Nektar Therapeutics, priority 2007, dated 2019).
Where two headings read alike, the source gives them in different places.

Legend:
mu opioid receptor [1] = molecular target: T1, mu opioid receptor (Homo sapiens (Human), UniProt P35372); test: cell-based; format: binding; settings: whole CHO cells, 0.5 nM 3H Naloxone; read-out: Ki at MU Receptors
Protocol: (§1) Using conventional receptor binding assay techniques, several molecules were assayed to determine binding activity at kappa, mu and delta opioid subtypes of opioid receptors.
(§2) Cells were plated in 24 well plates at a density of 0.2-0.3*10^6 cells/well and washed with assay buffer containing 50 mM Tris.HCl and 5 mM MgCl2 (pH 7.4). Competition binding assays were conducted in whole cells incubated with increasing concentrations of test compounds in the presence of appropriate concentration of radioligand. 0.5 nM ^3H Naloxone, 0.5 nM ^3H Diprenorphine and 0.5 nM ^3H DPDPE were used as the competing radioligands for mu, kappa and delta receptors respectively. Incubations were carried out for two hours at room temperature using triplicate wells at each concentration. At the end of the incubation, cells were washed with 50 mM Tris HCl (pH 8.0), solubilized with NaOH and bound radioactivity was measured using a scintillation counter.
(§3) Specific binding is determined by subtraction of the cpm bound in the presence of 50-100× excess of cold ligand. Binding data assays were analyzed using GraphPad Prism 4.0 and IC50 is generated by non-linear regression from dose-response curves.

[2] = molecular target: T2, recombinant human kappa opioid receptor (Homo sapiens (Human), UniProt P41145); test: cell-based; format: binding; settings: whole CHO cells, 0.5 nM 3H Diprenorphine; read-out: Ki at KAPPA receptors
Protocol: as §1, §2, §3

[3] = molecular target: T2, recombinant human kappa opioid receptor; test: biochemical; settings: agonist mode; read-out: Kappa Agonist EC50, GTP-γS Binding
Protocol: (§4) The reaction is initiated by 0.3 nM [^35S]GTPγS for an additional 30 minutes incubation period. Test compound-induced increase of [^35S]GTPγS binding by 50 percent or more (≥50%) relative to the receptor subtype-specific agonist response indicates possible opiate receptor agonist activity.

[4] = molecular target: recombinant human delta opioid receptor (Homo sapiens (Human), UniProt P41143); test: Radioligand competition binding in whole CHO cells, delta opioid receptor (3H DPDPE)
Protocol: as §1, §2, §3

in vivo = settings: rat, iv, 25 mg/kg
mu opioid receptor [5] = molecular target: T1, mu opioid receptor; test: biochemical; settings: antagonist mode vs 1 μM DAMGO; read-out: Mu Antagonist IC50, GTP-γS Binding
Protocol: as §4

[6] = system: CD-1 male mice (phenylquinone-induced writhing, visceral pain); test: Phenylquinone writhing analgesic assay; format: in vivo; settings: mPEGn-O-HydroxyCodone series, writhing 35-45 min after pretreatment
Protocol: Mice were treated according to standard protocols. Mice were given a single “pretreatment” dose of a compound lacking covalent attachment of a water-soluble, non-peptidic oligomer (i.e., non-PEG oligomer-modified parent molecule), a corresponding version comprising the compound covalently attached to a water-soluble, non-peptidic oligomer (i.e., the conjugate), or control solution (IV, SC, IP or orally) thirty minutes prior to the administration of the phenylquinone (PQ) solution. Each animal was given an IP injection of an irritant (phenylquinone, PQ) that induces “writhing” which may include: contractions of the abdomen, twisting and turning of the trunk, arching of the back, and the extension of the hindlimbs. Each animal was given an IP injection of PQ (1 mg/kg PQ, 0.1 mL/10 g bodyweight). After the injection, the animals were returned to their observation enclosure and their behavior was observed. Contractions were counted between 35 and 45 minutes after the “pretreatment”. The animals were used once. Each tested article was dosed at a range between 0.1 and 100 mg/kg (n=5-10 animals/dose).

mu opioid receptor [7] = molecular target: T1, mu opioid receptor; format: binding; settings: mean IC50 ratio, ↓ = lower affinity
Protocol: Using conventional in vitro mu opioid receptor binding affinity assays, IC50 values were determined for each of alpha-6-mPEGn-O-hydrocodonol compounds.

[8] = Plasma pharmacokinetics after intravenous dosing in male Sprague-Dawley rats; settings: IV 1 mg/kg, PEGylated hydroxycodone
[9] = molecular target: cloned human mu opioid receptor (Homo sapiens (Human), UniProt P35372); format: cell-based; settings: inhibition of cAMP formation, 3 μM forskolin, whole cells
Protocol: The efficacy of the various PEG-opioid conjugates was measured by their ability to inhibit cAMP formation following receptor activation. Studies were conducted in CHO cells heterologously expressing the cloned human mu, kappa or delta opioid receptors. cAMP was measured using a cAMP HiRange homogenous time-resolved fluorescence assay (HTRF Assay), that is based on a competitive immunoassay principle (Cisbio, Cat.#62AM6PEC).
Briefly, suspensions of cells expressing either the mu, kappa or delta opioid receptors were prepared in buffer containing 0.5 mM isobutyl-methyl xanthine (IBMX). […] EC50 values were calculated for each compound from a sigmoidal dose-response plot of concentrations versus maximum response. To determine if the compounds behaved as full or partial agonists in the system, the maximal response at the highest tested concentrations of compounds were compared to that produced by a known full agonist.

Chain of recombinant human delta opioid receptor (P41143 whole entry, looked up): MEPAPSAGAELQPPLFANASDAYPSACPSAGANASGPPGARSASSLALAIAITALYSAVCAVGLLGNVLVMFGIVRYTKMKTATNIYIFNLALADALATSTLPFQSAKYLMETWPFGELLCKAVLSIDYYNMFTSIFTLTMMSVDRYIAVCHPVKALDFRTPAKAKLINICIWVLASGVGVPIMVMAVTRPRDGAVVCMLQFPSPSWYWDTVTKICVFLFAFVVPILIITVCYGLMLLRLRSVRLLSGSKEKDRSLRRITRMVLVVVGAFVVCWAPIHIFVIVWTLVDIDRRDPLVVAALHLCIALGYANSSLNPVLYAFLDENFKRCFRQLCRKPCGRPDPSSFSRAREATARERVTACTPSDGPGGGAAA

## COCCOCCOCCO[C@H]1CC[C@@]2(O)[C@H]3Cc4ccc(O)c5c4[C@@]2(CCN3CC2CCC2)[C@H]1O5 [6-O-mPEG3-Nalbuphine, 6-O-mPEG3-nalbuphine]
Mu opioid receptor [1]
  Ki: 27.4 nM
[2]
  Ki: 218 nM
[3]
  EC50: 26.8 nM
[4]
  Ki: 163 nM
In vivo
  Kp at 1 h: 0.23
Mu opioid receptor [5]
  IC50: 398 nM

## COCCOCCOCCOCCO[C@H]1CC[C@@]2(O)[C@H]3Cc4ccc(O)c5c4[C@@]2(CCN3CC2CCC2)[C@H]1O5 [6-O-mPEG4-Nalbuphine, 6-O-mPEG4-nalbuphine]
Mu opioid receptor [1]
  Ki: 17.5 nM
[4]
  Ki: 149 nM

## COc1ccc2c3c1O[C@H]1C(=O)CC[C@@]4(O)[C@@H](C2)N(C)CC[C@]314 [Oxycodone, oxycodone, reference compound]
[6]; Mus musculus, read-out: ED50
  ED50: 0.619 mg/kg

## COc1ccc2c3c1O[C@H]1[C@@H](O)CC[C@H]4[C@@H](C2)N(C)CC[C@@]341 [α-6-Hydrocodonol, 6-hydrocodonol, reference compound]
Mu opioid receptor [7]
  Fold Change vs. Hydrocodone: 7.50 ↓

## COCCO[C@H]1CC[C@H]2[C@H]3Cc4ccc(OC)c5c4[C@@]2(CCN3C)[C@H]1O5 [α-6-mPEG1-O-Hydrocodonol]
Mu opioid receptor [7]
  Fold Change vs. Hydrocodone: 6.03 ↓

## COCCO[C@H]1CC[C@@]2(O)[C@H]3Cc4ccc(OC)c5c4[C@@]2(CCN3C)[C@H]1O5 [α-6-mPEG1-O-Hydroxycodone, α-6-mPEG1-O-hydroxycodone]
[8]
  mean exposure (AUC) as compared to oxycodone: slightly lower mean exposure
[6]
  ED50: 6.064 mg/kg

## COCCOCCO[C@H]1CC[C@H]2[C@H]3Cc4ccc(OC)c5c4[C@@]2(CCN3C)[C@H]1O5 [α-6-mPEG2-O-Hydrocodonol]
Mu opioid receptor [7]
  Fold Change vs. Hydrocodone: 5.84 ↓

## COCCOCCO[C@H]1CC[C@@]2(O)[C@H]3Cc4ccc(OC)c5c4[C@@]2(CCN3C)[C@H]1O5 [α-6-mPEG2-O-Hydroxycodone, α-6-mPEG2-O-hydroxycodone]
[8]
  mean exposure (AUC) as compared to oxycodone: slightly lower mean exposure

## COCCOCCOCCO[C@H]1CC[C@H]2[C@H]3Cc4ccc(OC)c5c4[C@@]2(CCN3C)[C@H]1O5 [α-6-mPEG3-O-Hydrocodonol]
Mu opioid receptor [7]
  Fold Change vs. Hydrocodone: 5.87 ↓

## COCCOCCOCCOCCO[C@H]1CC[C@H]2[C@H]3Cc4ccc(OC)c5c4[C@@]2(CCN3C)[C@H]1O5 [α-6-mPEG4-O-Hydrocodonol]
Mu opioid receptor [7]
  Fold Change vs. Hydrocodone: 7.14 ↓

## COCCOCCOCCOCCO[C@H]1CC[C@@]2(O)[C@H]3Cc4ccc(OC)c5c4[C@@]2(CCN3C)[C@H]1O5 [α-6-mPEG4-O-Hydroxycodone, α-6-mPEG4-O-hydroxycodone]
[8]
  mean exposure (AUC) as compared to oxycodone: slightly lower mean exposure
[6]
  ED50: 17.31 mg/kg

## COCCOCCOCCOCCOCCO[C@H]1CC[C@H]2[C@H]3Cc4ccc(OC)c5c4[C@@]2(CCN3C)[C@H]1O5 [α-6-mPEG5-O-Hydrocodonol]
Mu opioid receptor [7]
  Fold Change vs. Hydrocodone: 6.20 ↓

## COCCOCCOCCOCCOCCOCCO[C@H]1CC[C@H]2[C@H]3Cc4ccc(OC)c5c4[C@@]2(CCN3C)[C@H]1O5 [α-6-mPEG6-O-Hydrocodonol]
Mu opioid receptor [7]
  Fold Change vs. Hydrocodone: 11.12 ↓

## COCCOCCOCCOCCOCCOCCO[C@H]1CC[C@@]2(O)[C@H]3Cc4ccc(OC)c5c4[C@@]2(CCN3C)[C@H]1O5 [α-6-mPEG6-O-Hydroxycodone, α-6-mPEG6-O-hydroxycodone]
[8]
  mean exposure (AUC) as compared to oxycodone: comparable mean exposure

## COCCOCCOCCOCCOCCOCCOCCO[C@H]1CC[C@H]2[C@H]3Cc4ccc(OC)c5c4[C@@]2(CCN3C)[C@H]1O5 [α-6-mPEG7-O-Hydrocodonol]
Mu opioid receptor [7]
  Fold Change vs. Hydrocodone: 26.32 ↓

## COCCOCCOCCOCCOCCOCCOCCO[C@H]1CC[C@@]2(O)[C@H]3Cc4ccc(OC)c5c4[C@@]2(CCN3C)[C@H]1O5 [α-6-mPEG7-O-Hydroxycodone, α-6-mPEG7-O-hydroxycodone]
[8]
  mean exposure (AUC) as compared to oxycodone: higher mean exposure

## COCCOCCOCCOCCOCCOCCOCCOCCO[C@H]1CC[C@H]2[C@H]3Cc4ccc(OC)c5c4[C@@]2(CCN3C)[C@H]1O5 [α-6-mPEG8-O-Hydrocodonol]
Mu opioid receptor [7]
  Fold Change vs. Hydrocodone: 40.10 ↓

## COCCOCCOCCOCCOCCOCCOCCOCCOCCO[C@H]1CC[C@H]2[C@H]3Cc4ccc(OC)c5c4[C@@]2(CCN3C)[C@H]1O5 [α-6-mPEG9-O-Hydrocodonol]
Mu opioid receptor [7]
  Fold Change vs. Hydrocodone: 16.30 ↓

## α-6-hydroxycodone
[9]
  EC50: 3160 nM
